We go through five compounds from patent US11246858B2, “Immunoresponsive methods of treating tumors” (Institut Pasteur de Montevideo, priority 2017, dated 2022).

* marks the point of attachment. Cbz = O=C(OCc1ccccc1)*; CH2F = FC*

The test system of one test is EG7.OVA cancer cells. The test is described as follows: EG7.OVA tumor-bearing wild type mice treated with BAY K8644. The class given is in vivo. The conditions noted are these: EG7.OVA s.c., i.p. daily day 3 to day 15, vs control vehicle. Here is the method: Data from in vivo studies depicted in FIG. 16 confirm the effect of pharmacologic inhibition of TORID on tumor growth. The study was performed on wild type mice injected subcutaneously with EG7.OVA cancer cells. Three days after inoculating the wild type mice with EG7.OVA tumor cells, Bay K8644 or a control vehicle, such as ethanol, were injected intraperitoneally daily up to the fifteenth day after tumor cell inoculation.

The next test deals with EG7.OVA cells. The test is described as follows: EG7.OVA tumor in caspase 1/11 active and caspase 1/11 KO mice treated with BAY K8644. The class given is in vivo. The conditions noted are these: 4 mg/kg i.p. daily day 3 to day 15. The text has this: FIG. 17 further confirms the results from FIG. 16 and the proposed mechanism depicted in FIG. 6. Data shown in FIG. 17 was gathered from caspase 1/11 active mice (1/11^+/+) and caspase 1/11 KO mice (1/11^−/−) injected with EG7.OVA cells.

The next test has as its system TORID. The test is described as follows: TORID activity by ANG-2 probe fluorescence (flow cytometry) in transfected CHO cells. The class given is cell-based. The method, then: As shown in FIG. 14 Chinese hamster ovarian (CHO) cells were transfected with TORID and Tmem176a and incubated for 24 hours. The cells were subsequently loaded with ANG-2 probe for 30 min RT, washed, and then incubated with (+)-BAY […] or (i)-BAY […] for 30 min. The cells were then analyzed by flow cytometry to evaluate TORID activity. Activity was measured by comparing fluorescence of the ANG-2 probe in TORID+ cells incubated with BAY […] (blue) to the control (red). TORID activity measure as the ANG-2 mean fluorescent intensity (MFI) in normal medium 0(-), 5(+), or 10(++) uM. […] FIG. 15 illustrates analysis of the ANG-2 mean fluorescent intensity (MFI) in normal medium of TORID exposed to BAY […] concentrations of 0 uM (-), 5 uM (+) or 10 uM (++). […] In all cases fluorescence intensity from ANG-2-loaded cells cultured in […] buffer was subtracted.

For a further test, the system named is EG7 and MC38 tumors. The test is described as follows: Survival of mice with EG7 and MC38 tumors treated with anti-PD-1 alone or anti-PD-1+Bayk8644. In kind it is in vivo. Conditions: anti-PD-1 resistant mice; two tumor types (EG7, MC38); anti-PD-1+BAY K8644 vs anti-PD-1 alone.
The next test has as its system IL-1β secretion. The test is described as follows: IL-1β secretion by LPS-primed, stimulated WT and TORID KO BMDCs (ELISA). The class given is cell-based, mouse. Conditions: for IL-1β secretion: WT and TORID KO BMDCs primed with LPS, stimulated with ATP. Here is the method:
The study shown in FIG. 8 was performed by priming WT and TORID KO mice bone marrow-derived dendritic cells (BMDCs) with 0.25 μg/mL lipopolysaccharide (LPS) for four hours. The BMDCs were then washed and treated with different doses of ATP, Nigericin, and aluminum for 45 minutes as shown in the left column of bar graphs. Alternatively, 0.5 mg/mL ATP, 2.5 μg/mL Nigericin, or 500 μg/mL aluminum were used at different time points as indicated in the right column of bar graphs. IL-1β was quantified by ELISA in the culture supernatant.
The experiment was performed on wildtype and TORID KO mice BMDCs primed with LPS for 3 hours. The BMDCs were subsequently treated with nigericin, ATP, or aluminum for 45 minutes. […] Caspase 1 activation was quantified by FACS using Flica 1 reagent. […] Z-WEHD-FMK was used as the caspase 1 inhibitor, and IL-1β levels were quantified by ELISA in the supernatant of the cell culture stimulated with the indicated compounds.
Inflammasome activation is also associated with an increase of cytosolic Ca^2+. […] Data in this study was generated by loading Ca^2+ sensitive probe Fura-2 in wild type and TORID KO mice BMDCs after priming the BMDCs for three hours with LPS. The cells were exposed to 0.5 mM ATP to elicit inflammasome activation. The cells were excited with a UV laser at 350 nm. Absorbance at 340 nm and 380 nm were recorded in a time lapse manner. As shown in the top illustrations, the TORID KO BMDCs show a higher level of cytosolic Ca^2+. Moreover, IL-1β levels were higher with the TORID KO BMDCs. BAPTA-AM was used to chelate cytosolic Ca^2+.
Potassium (K^+) efflux is also linked to inflammasome activation. In the study shown in FIG. 11, IL-1β synthesis resulting from K^+ was tested. This study was performed on wild type and TORID KO mouse BMDCs treated with LPS and ATP as in the previously described studies herein. Culture medium was replaced by saline buffer containing normal low levels of K^+ (5 mM, K+) or high levels of K^+ (120 mM; K+++). IL-1β was quantified by ELISA in the culture supernatant. As shown in the top graph of FIG. 11, IL-1β levels were higher in the TORID KO mice. […] The results therefore support pharmacological use of TIs to promote inflammasome activation by triggering Ca^2+-activated K^+ channels.

For `COC(=O)C1=C(C)NC(C)=C([N+](=O)[O-])C1c1ccccc1C(F)(F)F` (stereo not shown) [BAY K8644, Methyl 2,6-dimethyl-5-nitro-4-[2-(trifluoromethyl)phenyl]-1,4-dihydropyridine-3-carboxylate], the disease-free survival rates result in the test with EG7.OVA cancer cells is reported as “increased”. For the same compound, in the test on EG7.OVA cells, the “overall rates of survival vs negative control group not injected” value is “higher” and the “survival rate in caspase 1/11 KO vs caspase 1/11 active mice” value is given as “lowered the survival rate”. In addition, the “TORID activity versus BAY K8644 concentration” value in the test on TORID (0, 5 or 10 uM in normal medium, Na-free buffer signal subtracted) is “dose proportional response”. In the test with TORID (CHO cells transfected with TORID and Tmem176a, 30 min incubation, vs control), the “TORID activity (ANG-2 mean fluorescent intensity)” value was “inhibits TORID activity”. Moreover, the rate of survival entry with EG7 and MC38 tumors is on record as “higher rate of survival”.

Cbz-WEHD-CH2F: in the test on IL-1β secretion (BMDCs primed with LPS 3 hours, then nigericin, ATP or aluminum, caspase 1 inhibition), the “IL-1β levels in culture supernatant” value is given as “lower levels of IL-1β”.

As to “iberiotoxin: BKCa KCa1.1 specific inhibitor (QFTDVDCSVSKECWSVCKDLFGVDRGKCMGKKCRCYQ; UniProt P24663 1-37, looked up)”, in the test on IL-1β secretion, the IL-1β secretion entry was “blocked IL-1beta secretion”.

`CC(=O)OCOC(=O)CN(CC(=O)OCOC(C)=O)c1ccccc1OCCOc1ccccc1N(CC(=O)OCOC(C)=O)CC(=O)OCOC(C)=O` [BAPTA-AM]: in the test with IL-1β secretion, the IL-1β secretion entry is given as “completely blocked IL-1β secretion”.

Regarding `CCN(CCO)CCCC(C)Nc1ccnc2cc(Cl)ccc12` (stereo not shown) [HCQ, hydroxychloroquine], the IL-1β secretion entry in the test on IL-1β secretion is given as “mimicked iberiotoxin in controlling IL-1β secretion”.
